From patent publication US20210329894A1, “METHOD FOR PREPARING ALZHEIMER'S DISEASE (AD) ANIMAL MODEL” (Shanxi Medical University, priority 2020, published 2021)

How the values were obtained:
Format in all cases: in vivo
[1] = test system: ApoE4 transgenic mice (KI); assay: new object recognition test; details: 4 mmol/L Al(mal)3 i.p. 10 ml/kg, 60 days, testing session T2, 1 h after training, compared among all groups
Method: (§1) Example 1 Establishment of aluminum-exposed ApoE4 transgenic mouse model 16 healthy male ApoE4 transgenic mice (KI), 16 ApoE knockout mice (KO) and 16 wild-type mice (C57BL/6J, WT) aged 4 to 5 weeks were selected, with similar activities and weights of 18 g to 20 g. They were randomly divided into control group (NS) and aluminum-exposed group (Al), with 8 animals in each group.
(§2) An 8 mmol/L aluminum chloride solution and a 24 mmol/L maltol solution were prepared with sterilized triple distilled water, then the two solutions were mixed in a volume ratio of 1:1 to obtain a Al(mal)3 solution with a final concentration of 4 mmol/L, and pH was adjusted to 7.4 with 10% NaOH. […]
In this example, a new object recognition test was conducted on the basis of the above examples. […] The time periods for a mouse to explore the two areas were both recorded by a recording instrument, and the recording time was set to 10 min, after which the mouse was taken out and put back in the original cage. […] Testing session (T2): 1 h after the training session ended, one of the cubes was replaced with a cone, the mouse was placed in exactly the same way as the training session, and the time periods for the mouse to explore two different objects were recorded as a new object recognition time (New, N) and a familiar object time (Familiar, F). […]

[2] = test system: tau-5; assay: expression level of tau-5 in the hippocampus (Western blot); details: KI mice, 4 mmol/L Al(mal)3 i.p. 10 ml/kg, 60 days; relative expression by Western blot
Method: as §1
(§3) An 8 mmol/L aluminum chloride solution and a 24 mmol/L maltol solution were prepared with sterilized triple distilled water, then the two solutions were mixed in a volume ratio of 1:1 to obtain a Al(mal)3 solution with a final concentration of 4 mmol/L, and pH was adjusted to 7.4 with 10% NaOH. The animals in the aluminum-exposed group were intraperitoneally injected with the Al(mal)3 at a volume of 10 ml/kg, with aluminum exposure for 60 days, and interval time of 2 days for every 5 days; and the control group was given the same volume of normal saline (NS).
(§4) This example was different from the above examples in that the determination of expression levels of Tau proteins in the brain was added. The tau-5 and pThr181 levels in animals of each group were determined by Western blot. […] The gray value was analyzed with Quantity one software, and the relative expression level of protein was calculated.

[3] = test system: pThr181; assay: expression level of pThr181 in the hippocampus (Western blot); details: KI mice, 4 mmol/L Al(mal)3 i.p. 10 ml/kg, 60 days; relative expression by Western blot
Method: as §1, §3, §4

[4] = test system: Aβ42; assay: determination of Aβ42 content in the hippocampus (Elisa kit); details: KI mice, 4 mmol/L Al(mal)3 i.p. 10 ml/kg, 60 days
Method: as §1, §3
This example was different from the above examples in that the determination of Aβ42 content was added. The hippocampus tissue of a mouse was stripped, and crushed with an ultrasonic processor; the hippocampal tissue protein was extracted with a tissue protein extraction reagent; and the Aβ42 content in the hippocampus was detected with an Aβ42 protein Elisa kit.

[5] = determination of aluminum content in the brain (ICP-MS); details: each aluminum-exposed group (KI, KO, WT mice), 4 mmol/L Al(mal)3 i.p. 10 ml/kg, 60 days; vs control group
Method: as §1, §2
This example was different from the above Example in that the determination of aluminum content in the brain was added. 60 mg of mouse brain tissue was weighed and put into a microwave digestion tube, 3 ml of nitric acid (guaranteed reagent) was added, and the tube was put in a microwave digestion system for microwave digestion according to a program; after digestion, the solution was filtered with a 0.22 μm microporous filter, and a resulting filtrate was collected in a 5 ml deionized centrifuge tube and then diluted to […] with nitric acid (guaranteed reagent); and the sample was diluted 25 times with Wahaha water, and aluminum content was detected with ICP-MS.

[6] = test system: ApoE4 transgenic mice (KI); assay: Morris water maze (place navigation test and space exploration experiment); details: 4 mmol/L Al(mal)3 i.p. 10 ml/kg
Method: as §1, §3
This example was different from Example 1 in that a Morris water maze experiment and a place navigation test were added. […]

SMILES: Cc1occc(=O)c1[O][Al]([O]c1c(C)occc1=O)[O]c1c(C)occc1=O [Al, Al(mal)3]
- discrimination index (DI) [1]: lowest DI
- expression level of tau-5 in the hippocampus [2]: significantly increased
- expression level of pThr181 in the hippocampus [3]: significantly increased
- Aβ42 content in the hippocampus [4]: significantly increased
- brain aluminum content [5]: significantly higher
- escape latency (time to find the platform) ([6]; 60 days exposure, days 4 and 5 of training, vs control group): significantly longer
- number of crossing the platform ([6]; 60 days, space exploration experiment, 60 s, compared among all groups): least number of crossing the platform
